Holding throughout (assay type): biochemical
One experiment addresses PLK1 (Homo sapiens, UniProt P53350). Put plainly: HTRF KinEASE kinase assay, PLK1 (kinase selectivity). Particulars: HTRF KinEASE kit, 3 duplicate wells; read-out: PLK1 IC50. On the procedure: (§1) Inhibitory activities against PIM-1, TRKA, TRKB, FLT3, PKCδ, PKCε, PKCη, PAK4, PLK1, ROCK2, and IKKβ kinases were all determined using an HTRF®KinEASE™ kinase assay kit based on a time-resolved fluorescence technology. 7-carbonylstaurosporine (7OSTA) and TP-3654 were used as positive controls, and 3 duplicate wells were set in parallel. […] A signal ratio was calculated as F2/F1×10000, and then an IC50 value was calculated using Graphpad Prism 8 software.
(In general: In TR-FRET formats the signal depends on donor and acceptor labels being close together.)

The target in a further experiment is PIM-1 kinase (Homo sapiens, UniProt P11309). Nature of the experiment: HTRF KinEASE kinase assay, PIM-1 inhibitory activity. From the text: Inhibitory activities against PIM-1, TRKA, TRKB, FLT3, PKCδ, PKCε, PKCη, PAK4, PLK1, ROCK2, and IKKβ kinases were all determined using an HTRF®KinEASE™ kinase assay kit based on a time-resolved fluorescence technology. 7-carbonylstaurosporine (7OSTA) and TP-3654 were used as positive controls, and 3 duplicate wells were set in parallel. Specific operation steps are as follows. • (1) A kinase buffer was formulated and then used to formulate compounds to be tested, a positive drug, a substrate, kinases, and adenosine triphosphate (ATP). • (2) 2 μL of the substrate, 2 μL of the kinases (the kinases were not added in a negative control group), 4 μL of the compounds to be tested or the positive drug (4 μL of a buffer was added in a positive control group, and 6 μL of a buffer was added in the negative control group), and 2 μL of the ATP were sequentially added into each well of a 384-well microplate, and the microplate was sealed with a membrane and then centrifuged for uniform mixing. • (3) According to different types of the kinases, incubation was performed in an incubator at 37° C. for a specific time. • (4) A detection solution was formulated using XL-665, an antibody, and a detection buffer, 10 µL of the detection solution was added into each well, the microplate was sealed with a membrane and then centrifuged for uniform mixing, and standing was performed at room temperature for 1 hour. • (5) Fluorescence value intensities F1 and F2 at wavelengths of 620 nm and 665 nm were measured using a multifunctional microplate tester, respectively. A signal ratio was calculated as F2/F1×10000, and then an IC50 value was calculated using Graphpad Prism 8 software.
PIM-1 kinase, sequence (P11309 whole entry): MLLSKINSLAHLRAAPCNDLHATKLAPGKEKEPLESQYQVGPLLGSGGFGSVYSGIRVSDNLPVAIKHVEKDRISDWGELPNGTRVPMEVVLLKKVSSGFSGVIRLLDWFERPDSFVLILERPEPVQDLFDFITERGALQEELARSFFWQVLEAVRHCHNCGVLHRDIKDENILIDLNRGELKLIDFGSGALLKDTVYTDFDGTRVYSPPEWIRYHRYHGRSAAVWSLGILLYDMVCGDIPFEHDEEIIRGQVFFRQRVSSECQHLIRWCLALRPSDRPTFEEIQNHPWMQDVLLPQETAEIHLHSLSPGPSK

Another experiment addresses T1, PKCε (Homo sapiens, UniProt Q02156).
T1 sequence (Q02156 1-737): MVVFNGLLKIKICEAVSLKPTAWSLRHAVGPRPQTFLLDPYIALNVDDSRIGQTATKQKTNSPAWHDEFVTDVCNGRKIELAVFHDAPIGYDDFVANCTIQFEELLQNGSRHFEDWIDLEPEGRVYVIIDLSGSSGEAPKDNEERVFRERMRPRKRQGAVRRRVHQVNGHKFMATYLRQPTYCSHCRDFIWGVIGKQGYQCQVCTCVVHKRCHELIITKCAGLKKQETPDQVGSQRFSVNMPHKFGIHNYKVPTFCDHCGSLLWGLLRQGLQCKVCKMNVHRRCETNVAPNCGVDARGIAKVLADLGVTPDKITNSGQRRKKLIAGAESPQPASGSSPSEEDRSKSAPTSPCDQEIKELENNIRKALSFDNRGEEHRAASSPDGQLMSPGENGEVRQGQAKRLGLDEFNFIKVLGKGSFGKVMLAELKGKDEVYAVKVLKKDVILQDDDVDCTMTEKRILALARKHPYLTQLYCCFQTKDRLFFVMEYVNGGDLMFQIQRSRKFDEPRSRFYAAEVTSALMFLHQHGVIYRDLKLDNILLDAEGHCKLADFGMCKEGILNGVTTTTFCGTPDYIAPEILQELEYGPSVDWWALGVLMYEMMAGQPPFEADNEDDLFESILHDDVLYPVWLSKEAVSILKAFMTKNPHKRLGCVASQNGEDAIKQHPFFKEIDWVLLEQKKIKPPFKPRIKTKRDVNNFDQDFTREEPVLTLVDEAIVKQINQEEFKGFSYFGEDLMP
Nature of the experiment: HTRF KinEASE kinase assay, PKCε (kinase selectivity). The conditions noted are these: HTRF KinEASE kit, 3 duplicate wells; read-out: PKCε IC50. On the procedure:
as §1

A further experiment addresses PKCη (Homo sapiens, UniProt P24723). Put plainly: HTRF KinEASE kinase assay, PKCη (kinase selectivity). The conditions noted are these: HTRF KinEASE kit, 3 duplicate wells; read-out: PKCη IC50. On the procedure:
as §1

The next experiment deals with TRKB (Homo sapiens, UniProt Q16620). Nature of the experiment: HTRF KinEASE kinase assay, TRKB (kinase selectivity). The conditions noted are these: HTRF KinEASE kit, 3 duplicate wells; read-out: TRKB IC50. The protocol:
as §1

pIC50: −log10 of the molar value. Entries after “also recorded” stand apart in the source; their conditions may differ.

PLK1, sequence (P53350 whole entry, species assumed): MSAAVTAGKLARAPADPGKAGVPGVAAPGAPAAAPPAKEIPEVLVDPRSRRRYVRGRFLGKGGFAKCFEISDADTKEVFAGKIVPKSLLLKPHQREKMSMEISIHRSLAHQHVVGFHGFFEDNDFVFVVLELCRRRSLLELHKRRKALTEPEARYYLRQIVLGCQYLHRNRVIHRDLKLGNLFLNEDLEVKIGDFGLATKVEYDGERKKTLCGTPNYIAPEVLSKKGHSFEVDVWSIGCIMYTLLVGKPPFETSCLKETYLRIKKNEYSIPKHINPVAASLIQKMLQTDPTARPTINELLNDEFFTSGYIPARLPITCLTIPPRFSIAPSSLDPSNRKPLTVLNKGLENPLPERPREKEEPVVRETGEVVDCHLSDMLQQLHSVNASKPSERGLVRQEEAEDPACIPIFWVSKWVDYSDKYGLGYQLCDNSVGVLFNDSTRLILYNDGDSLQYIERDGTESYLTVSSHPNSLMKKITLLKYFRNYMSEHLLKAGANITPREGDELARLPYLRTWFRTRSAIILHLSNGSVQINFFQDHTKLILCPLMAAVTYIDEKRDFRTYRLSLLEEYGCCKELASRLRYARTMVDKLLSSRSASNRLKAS
TRKB, sequence (Q16620 32-822, species assumed): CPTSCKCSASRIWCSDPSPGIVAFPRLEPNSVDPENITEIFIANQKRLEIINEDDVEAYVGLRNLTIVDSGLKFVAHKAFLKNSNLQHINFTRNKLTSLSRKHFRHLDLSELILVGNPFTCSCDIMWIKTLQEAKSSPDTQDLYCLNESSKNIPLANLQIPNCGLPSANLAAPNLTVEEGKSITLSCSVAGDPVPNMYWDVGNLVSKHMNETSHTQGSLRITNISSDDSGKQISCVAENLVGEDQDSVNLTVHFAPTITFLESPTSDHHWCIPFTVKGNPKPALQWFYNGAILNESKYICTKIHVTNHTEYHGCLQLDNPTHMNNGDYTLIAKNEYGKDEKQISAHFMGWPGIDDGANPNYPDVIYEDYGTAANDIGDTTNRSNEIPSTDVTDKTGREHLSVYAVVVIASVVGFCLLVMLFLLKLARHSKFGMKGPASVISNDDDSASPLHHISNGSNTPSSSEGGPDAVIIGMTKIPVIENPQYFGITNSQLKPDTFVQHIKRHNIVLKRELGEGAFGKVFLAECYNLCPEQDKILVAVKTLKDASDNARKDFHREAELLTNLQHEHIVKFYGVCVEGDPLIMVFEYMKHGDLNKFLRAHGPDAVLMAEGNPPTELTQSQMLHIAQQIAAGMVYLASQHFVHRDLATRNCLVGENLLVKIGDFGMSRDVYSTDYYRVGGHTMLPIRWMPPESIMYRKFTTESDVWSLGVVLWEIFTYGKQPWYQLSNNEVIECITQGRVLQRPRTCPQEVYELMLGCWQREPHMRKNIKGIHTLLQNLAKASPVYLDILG
PKCη, sequence (P24723 whole entry): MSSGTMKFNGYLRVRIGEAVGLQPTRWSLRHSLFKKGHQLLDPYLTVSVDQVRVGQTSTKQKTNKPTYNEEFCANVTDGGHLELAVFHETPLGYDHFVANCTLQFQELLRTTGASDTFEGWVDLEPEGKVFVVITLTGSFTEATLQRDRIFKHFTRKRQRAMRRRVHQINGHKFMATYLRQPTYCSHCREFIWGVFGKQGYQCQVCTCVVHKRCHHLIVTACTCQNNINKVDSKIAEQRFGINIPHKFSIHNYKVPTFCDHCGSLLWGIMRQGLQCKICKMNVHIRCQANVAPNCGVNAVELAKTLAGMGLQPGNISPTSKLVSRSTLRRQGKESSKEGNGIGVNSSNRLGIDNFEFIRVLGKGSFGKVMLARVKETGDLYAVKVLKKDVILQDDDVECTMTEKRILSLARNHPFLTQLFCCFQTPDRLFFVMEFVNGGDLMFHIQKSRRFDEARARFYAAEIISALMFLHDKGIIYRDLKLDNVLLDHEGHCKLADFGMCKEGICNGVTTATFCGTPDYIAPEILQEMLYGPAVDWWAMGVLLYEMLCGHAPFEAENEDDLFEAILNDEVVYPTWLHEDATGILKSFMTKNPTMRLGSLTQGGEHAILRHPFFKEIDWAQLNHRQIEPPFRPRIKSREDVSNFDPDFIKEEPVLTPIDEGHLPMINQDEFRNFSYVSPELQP

As a reminder, the pIC50 is the negative decadic logarithm of the IC50, by convention in mol/L. For the molecule `CO[C@@H]1[C@H](N(C)C(=O)CCC(=O)NO)C[C@H]2O[C@]1(C)n1c3ccccc3c3c4c(c5c6ccccc6n2c5c31)C(=O)NC4=O` [Compound 17], the pIC50 on PLK1 is 6.38; on PIM-1 kinase (HTRF KinEASE kit, 3 duplicate wells, read-out: PIM-1 kinase inhibitory activity (IC50)), 8.23; at PKCε, 7.16; on PKCη it was 7.14; at TRKB it was 7.87. For the same molecule, the “selectivity for the PIM-1 kinase (in words)” value at PIM-1 kinase (versus TRKA, TRKB, FLT3, PKCδ, PKCε, PKCη, PAK4, PLK1, ROCK2, IKKβ) is given as “excellent selective inhibitory effect on the PIM-1 kinase; also recorded: excellent selective inhibition ability against the PIM-1 kinase”.
